Measurements taken from patent publication US7772263B2, “Compounds for the treatment of inflammatory disorders” (Schering Corporation, priority 2006, dated 2010).

The compounds below were run against T1, purified catalytic domain of recombinant human TACE (rhTACEc) (Homo sapiens, UniProt P78536, N452Q/S266A) (assay: TACE kinetic assay, cleavage of internally quenched fluorescent peptide substrate SPDL-3). Settings: Ki (nM), TACE inhibitory activity, rhTACEc 70 pM, 30 μM SPDL-3, 90 min pre-incubation at 25° C.
T1 construct: rhTACEc, Residue 215 to 477 with two mutation (S266A and N4520) and a 6×His tail; 6xHis (C); made in house; host or cells: baculovirus/Hi5 insect cells
Format: biochemical

T1 sequence (P78536 215-477 S266A/N452Q limits assumed): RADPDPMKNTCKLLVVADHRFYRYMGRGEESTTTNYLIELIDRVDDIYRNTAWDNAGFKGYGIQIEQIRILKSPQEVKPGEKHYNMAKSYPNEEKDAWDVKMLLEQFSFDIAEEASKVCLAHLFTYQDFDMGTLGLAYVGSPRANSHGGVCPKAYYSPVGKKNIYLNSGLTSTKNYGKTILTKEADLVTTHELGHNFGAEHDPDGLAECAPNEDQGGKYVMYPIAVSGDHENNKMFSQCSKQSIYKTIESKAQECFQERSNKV

| Structure (SMILES) | Ki |
| --- | --- |
| COc1ccc2c(c1)C(=O)N(C[C@@]1(C#Cc3ccccc3F)NC(=O)NC1=O)C2 [Compound 516] | 0.13 nM |

Same assay, conditions: TACE inhibition, Table 1001; read-out: Ki Rating

| Ki | Structure (SMILES) |
| --- | --- |
| < 5 nM | COc1ccc2c(c1)C(=O)N(C[C@@]1(C#Cc3ccc(C(F)(F)F)cc3)NC(=O)NC1=O)C2 [Compound 486] |
| < 5 nM | COc1ccc2c(c1)C(=O)N(C[C@@]1(C#Cc3cnn(C)c3)NC(=O)NC1=O)C2 [Compound 487] |
| < 5 nM | COc1ccc2c(c1)C(=O)N(C[C@@]1(C#Cc3cccc(Cl)c3F)NC(=O)NC1=O)C2 [Compound 488] |
| < 5 nM | COc1ccc2c(c1)C(=O)N(C[C@@]1(C#Cc3cccc(F)c3F)NC(=O)NC1=O)C2 [Compound 489] |
| < 5 nM | COc1ccc2c(c1)C(=O)N(C[C@@]1(C#Cc3ccc(F)cc3F)NC(=O)NC1=O)C2 [Compound 490] |
| < 5 nM | COc1ccc2c(c1)C(=O)N(C[C@@]1(C#Cc3c(F)cccc3F)NC(=O)NC1=O)C2 [Compound 491] |
| < 5 nM | COc1ccc2c(c1)C(=O)N(C[C@@]1(C#Cc3c(F)cc(F)cc3F)NC(=O)NC1=O)C2 [Compound 492] |
| < 5 nM | COc1ccc2c(c1)C(=O)N(C[C@@]1(C#Cc3cccc(F)c3Cl)NC(=O)NC1=O)C2 [Compound 493] |
| < 5 nM | COc1ccc2c(c1)C(=O)N(C[C@@]1(C#Cc3ccc4nc(N)sc4c3)NC(=O)NC1=O)C2 [Compound 494] |
| < 5 nM | COc1ccc2c(c1)C(=O)N(C[C@@]1(C#Cc3ccc4sc(C)nc4c3)NC(=O)NC1=O)C2 [Compound 495] |
| < 5 nM | COc1ccc2c(c1)C(=O)N(C[C@@]1(C#Cc3ccc(C)nc3C)NC(=O)NC1=O)C2 [Compound 496] |
| < 5 nM | COc1ccc2c(c1)C(=O)N(C[C@@]1(C#Cc3cc(C)ccc3F)NC(=O)NC1=O)C2 [Compound 497] |
| < 5 nM | COc1ccc2c(c1)C(=O)N(C[C@@]1(C#Cc3cc(F)ccc3C)NC(=O)NC1=O)C2 [Compound 498] |
| < 5 nM | COc1ccc2c(c1)C(=O)N(C[C@@]1(C#Cc3ccc(Cl)cc3F)NC(=O)NC1=O)C2 [Compound 499] |
| < 5 nM | COc1ccc2c(c1)C(=O)N(C[C@@]1(C#Cc3ccc(C)cc3F)NC(=O)NC1=O)C2 [Compound 500] |
| < 5 nM | COc1ccc2c(c1)C(=O)N(C[C@@]1(C#Cc3cccc4nc(N)sc34)NC(=O)NC1=O)C2 [Compound 503] |
| < 5 nM | COc1ccc2c(c1)C(=O)N(C[C@@]1(C#Cc3ccc4nc(NC5CC5)sc4c3)NC(=O)NC1=O)C2 [Compound 504] |
| < 5 nM | COc1ccc2c(c1)C(=O)N(C[C@@]1(C#Cc3ccc4sc(N)nc4c3)NC(=O)NC1=O)C2 [Compound 505] |
| < 5 nM | COc1cncc(C#C[C@]2(CN3Cc4ccc(OC)cc4C3=O)NC(=O)NC2=O)c1 [Compound 506] |
| < 5 nM | CNc1nc2cccc(C#C[C@]3(CN4Cc5ccc(OC)cc5C4=O)NC(=O)NC3=O)c2s1 [Compound 507] |
| < 5 nM | CNc1nc2cc(C#C[C@]3(CN4Cc5ccc(OC)cc5C4=O)NC(=O)NC3=O)ccc2s1 [Compound 508] |
| < 5 nM | COc1ccc2c(c1)C(=O)N(C[C@@]1(C#Cc3ccc4nc(C)sc4c3)NC(=O)NC1=O)C2 [Compound 509] |
| < 5 nM | COc1ccc2c(c1)C(=O)N(C[C@@]1(C#Cc3ccc(F)c(Cl)c3)NC(=O)NC1=O)C2 [Compound 510] |
| < 5 nM | COc1ccc2c(c1)C(=O)N(C[C@@]1(C#Cc3ccc(C)s3)NC(=O)NC1=O)C2 [Compound 513] |

| Ki | Structure (SMILES) |
| --- | --- |
| < 5 nM | COc1ccc2c(c1)C(=O)N(C[C@@]1(C#Cc3ccccc3C(F)(F)F)NC(=O)NC1=O)C2 [Compound 514] |
| < 5 nM | COc1ccc2c(c1)C(=O)N(C[C@@]1(C#Cc3ccccc3OC(F)(F)F)NC(=O)NC1=O)C2 [Compound 515] |
| < 5 nM | COc1ccc2c(c1)C(=O)N(C[C@@]1(C#Cc3cc(F)ccc3Cl)NC(=O)NC1=O)C2 [Compound 517] |
| < 5 nM | COc1ccc2c(c1)C(=O)N(C[C@@]1(C#Cc3cc(Cl)ccc3F)NC(=O)NC1=O)C2 [Compound 518] |
| < 5 nM | COc1ccc2c(c1)C(=O)N(C[C@@]1(C#Cc3ccc(C(F)(F)F)nc3)NC(=O)NC1=O)C2 [Compound 519] |
| < 5 nM | COc1ccc2c(c1)C(=O)N(C[C@@]1(C#Cc3sc4ccc(Cl)cc4c3C)NC(=O)NC1=O)C2 [Compound 520] |
| < 5 nM | COc1ccc2c(c1)C(=O)N(C[C@@]1(C#Cc3cc(F)ccc3F)NC(=O)NC1=O)C2 [Compound 521] |
| < 5 nM | COc1ccc2c(c1)C(=O)N(C[C@@]1(C#Cc3ccc(S(N)(=O)=O)s3)NC(=O)NC1=O)C2 [Compound 522] |
| < 5 nM | COc1ccc2c(c1)C(=O)N(C[C@@]1(C#Cc3ccc(C)nn3)NC(=O)NC1=O)C2 [Compound 523] |
| < 5 nM | COc1ccc2c(c1)C(=O)N(C[C@@]1(C#Cc3cc(C)c4c(cnn4C)c3)NC(=O)NC1=O)C2 [Compound 524] |
| < 5 nM | COc1ccc2c(c1)C(=O)N(C[C@@]1(C#Cc3ccc4nc(C(F)(F)F)n(C)c4c3)NC(=O)NC1=O)C2 [Compound 525] |
| < 5 nM | COc1ccc2c(c1)C(=O)N(C[C@@]1(C#Cc3ccc4sccc4c3)NC(=O)NC1=O)C2 [Compound 526] |
| < 5 nM | COc1ccc2c(c1)C(=O)N(C[C@@]1(C#Cc3cc(C)c4nn(C)cc4c3)NC(=O)NC1=O)C2 [Compound 527] |
| < 5 nM | COc1ccc2c(c1)C(=O)N(C[C@@]1(C#Cc3csc(C(F)F)c3)NC(=O)NC1=O)C2 [Compound 528] |
| < 5 nM | COc1ccc2c(c1)C(=O)N(C[C@@]1(C#Cc3ccc(C(F)(F)F)s3)NC(=O)NC1=O)C2 [Compound 529] |
| < 5 nM | COc1ccc2c(c1)C(=O)N(C[C@@]1(C#Cc3ccc(C(F)(F)F)cc3F)NC(=O)NC1=O)C2 [Compound 530] |
| < 5 nM | COc1ccc2c(c1)C(=O)N(C[C@@]1(C#Cc3ccc(S(C)(=O)=O)s3)NC(=O)NC1=O)C2 [Compound 531] |
| < 5 nM | COc1ccc2c(c1)C(=O)N(C[C@@]1(C#Cc3csc4ccccc34)NC(=O)NC1=O)C2 [Compound 532] |
| < 5 nM | COc1ccc2c(c1)C(=O)N(C[C@@]1(C#Cc3csc(C)c3)NC(=O)NC1=O)C2 [Compound 533] |
| < 5 nM | COc1ccc2c(c1)C(=O)N(C[C@@]1(C#Cc3cccc(=O)[nH]3)NC(=O)NC1=O)C2 [Compound 535] |
| < 5 nM | COc1ccc2c(c1)C(=O)N(C[C@@]1(C#Cc3ccc(=O)[nH]c3)NC(=O)NC1=O)C2 [Compound 536] |
| < 5 nM | COc1ccc2c(c1)C(=O)N(C[C@@]1(C#Cc3ccsc3C(N)=O)NC(=O)NC1=O)C2 [Compound 537] |
| < 5 nM | COc1ccc2c(c1)C(=O)N(C[C@@]1(C#Cc3ccc(C(N)=O)s3)NC(=O)NC1=O)C2 [Compound 538] |
| < 5 nM | COc1ccc2c(c1)C(=O)N(C[C@@]1(C#Cc3ccc[n+]([O-])c3)NC(=O)NC1=O)C2 [Compound 539] |

| Ki | Structure (SMILES) |
| --- | --- |
| < 5 nM | COc1ccc2c(c1)C(=O)N(C[C@@]1(C#Cc3cccn(C)c3=O)NC(=O)NC1=O)C2 [Compound 540] |
| < 5 nM | COc1ccc2c(c1)C(=O)N(C[C@@]1(C#Cc3cncc(N)c3)NC(=O)NC1=O)C2 [Compound 554] |
| < 5 nM | COc1ccc2c(c1)C(=O)N(C[C@@]1(C#Cc3cnc(O)cc3C)NC(=O)NC1=O)C2 [Compound 555] |
| < 5 nM | COc1ccc2c(c1)C(=O)N(C[C@@]1(C#Cc3cn[nH]c3)NC(=O)NC1=O)C2 [Compound 900] |
| < 5 nM | COc1ccc2c(c1)C(=O)N(C[C@@]1(C#Cc3ccc(C(=O)NC4CC4)o3)NC(=O)NC1=O)C2 [Compound 901] |
| < 5 nM | COc1ccc2c(c1)C(=O)N(C[C@@]1(C#Cc3c[nH]c(C)n3)NC(=O)NC1=O)C2 [Compound 902] |
| < 5 nM | COc1ccc2c(c1)C(=O)N(C[C@@]1(C#Cc3ccc4ncsc4c3)NC(=O)NC1=O)C2 [Compound 903] |
| < 5 nM | COc1ccc2c(c1)C(=O)N(C[C@@]1(C#Cc3ccccc3C(C)C)NC(=O)NC1=O)C2 [Compound 904] |
| < 5 nM | O=C1NC(=O)[C@@](C#Cc2ccc(F)cc2F)(CN2Cc3ccc(OC(F)F)cc3C2=O)N1 [Compound 905] |
| < 5 nM | COc1ccc2c(c1)C(=O)N(C[C@@]1(C#Cc3ccc(F)c(C#N)c3)NC(=O)NC1=O)C2 [Compound 906] |
| < 5 nM | COc1ccc2c(c1)C(=O)N(C[C@@]1(C#Cc3ccc(OC)c(F)c3)NC(=O)NC1=O)C2 [Compound 907] |
| < 5 nM | COc1ccc2c(c1)C(=O)N(C[C@@]1(C#Cc3cc(F)cc(F)c3OC)NC(=O)NC1=O)C2 [Compound 908] |
| < 5 nM | COc1ccc2c(c1)C(=O)N(C[C@@]1(C#Cc3ccc(-c4ccccn4)s3)NC(=O)NC1=O)C2 [Compound 909] |
| < 5 nM | COc1ccc2c(c1)C(=O)N(C[C@@]1(C#Cc3nc4ccccc4s3)NC(=O)NC1=O)C2 [Compound 910] |
| < 5 nM | COc1ccc2c(c1)C(=O)N(C[C@@]1(C#Cc3c(C)n[nH]c3C)NC(=O)NC1=O)C2 [Compound 911] |
| < 5 nM | COc1ccc2c(c1)C(=O)N(C[C@@]1(C#Cc3c(N)ccc4scnc34)NC(=O)NC1=O)C2 [Compound 912] |
| < 5 nM | COc1ccc2c(c1)C(=O)N(C[C@@]1(C#Cc3ncnc4c3ncn4C(C)C)NC(=O)NC1=O)C2 [Compound 913] |
| < 5 nM | COc1ccc2c(c1)C(=O)N(C[C@@]1(C#Cc3ncnc4[nH]cnc34)NC(=O)NC1=O)C2 [Compound 914] |
| < 5 nM | COC(=O)c1ccc(C#C[C@]2(CN3Cc4ccc(OC)cc4C3=O)NC(=O)NC2=O)o1 [Compound 915] |
| < 5 nM | COc1ccc2c(c1)C(=O)N(C[C@@]1(C#Cc3ccc(C(N)=O)o3)NC(=O)NC1=O)C2 [Compound 916] |
| < 5 nM | COc1ccc2c(c1)C(=O)N(C[C@@]1(C#Cc3ccc(C(=O)O)o3)NC(=O)NC1=O)C2 [Compound 917] |
| < 5 nM | COc1ccc2c(c1)C(=O)N(C[C@@]1(C#Cc3cnc(C)n3C)NC(=O)NC1=O)C2 [Compound 918] |

| Structure (SMILES) | Ki |
| --- | --- |
| COc1ccc2c(c1)C(=O)N(C[C@@]1(C#Cc3ccccc3F)NC(=O)NC1=O)C2 [Compound 516] | < 5 nM |

Same assay, conditions: rhTACEc 70 pM, 30 μM SPDL-3, 90 min pre-incubation at 25° C.; read-out: Ki (nM), TACE inhibitory activity

| Ki | Structure (SMILES) |
| --- | --- |
| 0.23 nM | COc1ccc2c(c1)C(=O)N(C[C@@]1(C#Cc3ccc(F)cc3F)NC(=O)NC1=O)C2 [Compound 490] |
| 0.31 nM | COc1ccc2c(c1)C(=O)N(C[C@@]1(C#Cc3cncc(N)c3)NC(=O)NC1=O)C2 [Compound 554] |
